Measurements taken from ChEMBL document CHEMBL1201862, “PubChem BioAssay data set” (2004).
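Values below derive from 48-hour exposures of cells grown in 96-well plates, with endpoints linearly interpolated between the two concentrations bracketing the appropriate inhibition level. Here, GI50 denotes the concentration required for 50% inhibition of growth.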 The source made the active and inactive calls. Rule as the data show it: active = GI50 up to about 1.1 µM and inactive = higher.

What was measured:
Assay in all cases: NCI tumour cell line growth inhibition, 48 h
[1] = system: UACC-257
[2] = system: SW-620
[3] = system: HOP-62
[4] = system: U-251
[5] = system: SNB-19
[6] = system: EKVX
[7] = system: CCRF-CEM
[8] = system: DLD-1
[9] = system: OVCAR-8
[10] = system: LXFL 529
[11] = system: COLO 205
[12] = system: SNB-75
[13] = system: CAKI-1
[14] = system: M14
[15] = system: HL-60
[16] = system: SK-OV-3
[17] = system: M19-MEL
[18] = system: ACHN
[19] = system: SK-MEL-28
[20] = system: RXF 393
[21] = system: SF-268
[22] = system: Malme-3M
[23] = system: OVCAR-3
[24] = system: DMS-273
[25] = system: NCI-H522
[26] = system: NCI-H23
[27] = system: HCT-15
[28] = system: UACC-62
[29] = system: NCI-H226
[30] = system: A498
[31] = system: SF-295
[32] = system: KM12
[33] = system: DMS-114
[34] = system: HT-29
[35] = system: NCI-H460
[36] = system: HCT-116
[37] = system: A549
[38] = system: HOP-92
[39] = system: SK-MEL-5
[40] = system: UO-31
[41] = system: SNB-78
[42] = system: 786-0
[43] = system: KM-20L2
[44] = system: HOP-18
[45] = system: SF-539
[46] = system: SN12C
[47] = system: TK-10
[48] = system: OVCAR-5
[49] = system: OVCAR-4
[50] = system: SK-MEL-2
[51] = system: RXF 631
[52] = system: K562
[53] = system: LOX IMVI
[54] = system: HCC 2998
[55] = system: IGROV-1
[56] = system: SR
[57] = system: MOLT-4
[58] = system: RPMI-8226

Measured: GI50

C[Si](C)(C)c1ccc(CC2(Cc3ccc([Si](C)(C)C)cc3)CCNC2)cc1
inactive: [1] 2.44 µM | [2] 1.86 µM | [3] 2.94 µM | [4] 1.66 µM | [5] 4 µM | [6] 6.75 µM | [7] 4.67 µM | [8] 2.51 µM | [9] 1.85 µM | [10] 2.18 µM | [11] 1.8 µM | [12] 3.24 µM | [13] 2.39 µM | [14] 1.76 µM | [15] 7.18 µM | [16] 1.63 µM | [17] 1.95 µM | [18] 3.18 µM | [19] 2.33 µM | [20] 1.71 µM | [21] 2.22 µM | [22] 3.95 µM | [23] 1.97 µM | [24] 1.94 µM | [25] 1.78 µM | [26] 1.97 µM | [28] 2.02 µM | [29] 1.88 µM | [30] 1.55 µM | [31] 2.52 µM | [32] 1.99 µM | [33] 2.13 µM | [34] 2.04 µM | [35] 2.04 µM | [36] 1.69 µM | [37] 2.29 µM | [38] 1.74 µM | [39] 1.9 µM | [40] 2.48 µM | [41] 3.13 µM | [42] 1.77 µM | [43] 1.9 µM | [44] 2.77 µM | [45] 3.34 µM | [46] 1.71 µM | [47] 21 µM | [48] 4.67 µM | [49] 2.1 µM | [50] 1.76 µM | [51] 2.32 µM | [52] 3.62 µM | [53] 1.8 µM | [54] 2.11 µM | [55] 2.58 µM
2.16 µM: [27]

COC(=O)C1=C(\O)C[C@@]2(C)CC[C@@H](C(=O)OC)C2C/C=C\1C(=O)OC (stereo not given in full)
inactive: [1] 72.8 µM | [2] > 100 µM | [56] 81.3 µM | [3] > 100 µM | [4] > 100 µM | [5] > 100 µM | [6] > 100 µM | [7] > 100 µM | [8] > 100 µM | [9] > 100 µM | [10] 62.2 µM | [11] > 100 µM | [12] > 100 µM | [13] > 100 µM | [14] > 100 µM | [15] 49.5 µM | [16] > 100 µM | [17] > 100 µM | [18] > 100 µM | [19] 47 µM | [20] 40.6 µM | [21] 70.5 µM | [22] > 100 µM | [23] > 100 µM | [24] > 100 µM | [57] 46.6 µM | [25] > 100 µM | [28] > 100 µM | [29] 89.1 µM | [30] 23 µM | [31] > 100 µM | [32] > 100 µM | [33] 29.4 µM | [34] > 100 µM | [35] > 100 µM | [36] 66.1 µM | [37] 87.7 µM | [38] > 100 µM | [39] 48.9 µM | [40] 64 µM | [41] > 100 µM | [42] > 100 µM | [58] 50.1 µM | [43] > 100 µM | [44] > 100 µM | [45] 19.7 µM | [46] 24.1 µM | [47] > 100 µM | [48] 46.3 µM | [49] > 100 µM | [51] > 100 µM | [53] > 100 µM | [54] > 100 µM | [55] > 100 µM
> 100 µM: [27]
